Experimental data published in US8236789B2, “1-adamantyl azetidin-2-one derivatives and drugs containing same” (Kowa Company, Ltd., priority 2008, dated 2012).

Columns and labels:
Type in all cases: biochemical
human 11β-HSD1 = molecular target: T1, human 11β-HSD1 (Homo sapiens, UniProt P28845); experiment: Enzyme inhibitory activity assay, lysate of HEK293 cells stably expressing human 11β-HSD1, cortisol by competitive ELISA; details: Table 1; cell lysate, 100 nmol/L cortisone, NADPH, 37° C. 1 hour; read-out: in vitro assay (IC50 uM) h HSD1
T1 construct: expressed in transfected cells
T1 sequence (P28845 whole entry): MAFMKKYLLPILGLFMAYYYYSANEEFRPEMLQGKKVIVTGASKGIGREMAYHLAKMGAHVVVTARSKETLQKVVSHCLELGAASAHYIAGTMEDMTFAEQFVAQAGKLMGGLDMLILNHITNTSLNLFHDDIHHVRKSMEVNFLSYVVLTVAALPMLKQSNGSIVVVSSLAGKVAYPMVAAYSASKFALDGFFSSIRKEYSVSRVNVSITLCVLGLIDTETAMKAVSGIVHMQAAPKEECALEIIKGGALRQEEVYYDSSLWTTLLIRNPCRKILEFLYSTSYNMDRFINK
Description: (§1) 1. Human 11β-HSD1-, Human 11β-HSD2- and Mouse 11β-HSD1-Gene Clonings and Establishment of Stably Expressing Cells
(§2) Human 11β-HSD1- and human 11β-HSD2-expressing vectors were transfected into human kidney-derived cell line, HEK293 cells, using a transfection reagent, jet PEI (Funakoshi). Mouse 11β-HSD1 was transfected to Chinese hamster ovary-derived cell line, CHO-K1 cells. Selection was conducted with 200-400 μg/mL of zeocine (Invitrogen) to provide stably expressing-cell clones. The stably expressing cells were suspended in buffer solution A (20 mmol/L Tris-HCl, pH 7.4, 250 mmol/L sucrose, 1 mmol/L EGTA, 1 mmol/L EDTA, 1 mmol/L MgCl2), sonicated, and then stored at −80° C.
(§3) 2. Assay of Enzyme Inhibitory Activity
(§4) An enzymatic reaction was conducted using a polystyrene 96-well plate. Each well was added with 1 μL of a test agent dissolved in DMSO and then diluted (0.003 to 3 mmol/L), and further added with 10 μL of cell lysate diluted to a concentration of 0.1 mg/mL to 0.4 mg/mL. Next, 90 μL of buffer solution A containing substrate (100 nmol/L cortisone or cortisol) and coenzyme (400 μmol/L NADPH or NAD+) was added and the mixture was incubated at 37° C. for 1 hour. The enzymatic reaction was stopped by treating at 95° C. for 3 minutes. Cortisol that was present in the reaction solution was determined by a competitive ELISA shown below.
(§5) Anti-rabbit IgG antibody (Chemi-con) diluted to 2 μg/mL with carbonate buffer solution (pH 9.6) was added in 100 μL each to a 96-well immuno plate (Nunc) and immobilized by an incubation at 4° C. overnight. […] After washed three times with buffer solution B containing 0.05% Tween 20, the plates were allowed to develop color by adding 100 μL, of color reagent, TMB (Moss). The color reaction was stopped by 25 μL of 1 mol/L sulfuric acid and the absorbance was determined at 450 nm with a microplate reader (Molecular Device, VersaMax).

human 11β-HSD2 = molecular target: T2, human 11β-HSD2 (Homo sapiens, UniProt P80365); experiment: Enzyme inhibitory activity assay, lysate of HEK293 cells stably expressing human 11β-HSD2, cortisol by competitive ELISA; details: Table 1; cell lysate, 100 nmol/L cortisol, NAD+, 37° C. 1 hour; read-out: in vitro assay (IC50 uM) h HSD2
T2 construct: expressed in transfected cells
T2 sequence (P80365 1-405): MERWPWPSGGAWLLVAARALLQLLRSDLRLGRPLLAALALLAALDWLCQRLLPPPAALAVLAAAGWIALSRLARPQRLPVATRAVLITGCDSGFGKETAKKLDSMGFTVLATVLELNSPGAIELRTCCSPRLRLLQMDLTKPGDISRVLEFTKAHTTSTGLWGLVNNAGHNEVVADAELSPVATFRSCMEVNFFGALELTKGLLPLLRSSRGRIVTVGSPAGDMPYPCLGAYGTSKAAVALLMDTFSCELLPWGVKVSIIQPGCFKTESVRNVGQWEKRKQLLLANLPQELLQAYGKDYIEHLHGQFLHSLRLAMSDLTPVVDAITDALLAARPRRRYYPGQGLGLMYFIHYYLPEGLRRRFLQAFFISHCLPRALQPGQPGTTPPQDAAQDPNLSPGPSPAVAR
Description: as §1
Human 11β-HSD1-, human 11β-HSD2-, and mouse 11β-HSD1-gene clonings were conducted using as a template a reverse transcription product of human-liver RNA, human-kidney RNA (CELL APPLICATIONS), and mouse-kidney RNA respectively, by means of PCR cloning with reference to nucleotide sequences of Genbank Accession Nos. NM_005525, NM_000196, and NM_008288. The obtained PCR products of about 0.9 kbp, 1.2 kbp, and 0.9 kbp were subcloned into an expression vector pcDNA3.1+/Zeo (Invitrogen).
as §2, §3, §4
Anti-rabbit IgG antibody (Chemi-con) diluted to 2 μg/mL with carbonate buffer solution (pH 9.6) was added in 100 μL each to a 96-well immuno plate (Nunc) and immobilized by an incubation at 4° C. overnight. 50 μL of enzymatic reaction solution was put onto the plates, and further, anti-cortisol antibody (Cosmo Bio) and HRP-labeled cortisol (Cosmo Bio), diluted with buffer solution B (25 mmol/L Tris-HCl pH 7.4, 137 mmol/L NaCl, 2.68 mmol/L KCl), were added in 50 μL respectively and incubated at 4° C. overnight. After washed three times with buffer solution B containing 0.05% Tween 20, the plates were allowed to develop color by adding 100 μL, of color reagent, TMB (Moss). The color reaction was stopped by 25 μL of 1 mol/L sulfuric acid and the absorbance was determined at 450 nm with a microplate reader (Molecular Device, VersaMax).
The values of human 11β-HSD1, human 11β-HSD2, and mouse 11β-HSD1 activities were subtracted from 100, and the resultant values were regarded as the respective 11βHSD inhibition rates of example compounds. […] The comparison of human 11β-HSD1 and human 11β-HSD2 inhibiting activities is shown in Table 1, and the comparison of human 11β-HSD1 and mouse 11β-HSD1 inhibiting activities is shown in Table 2.

mouse 11β-HSD1 = molecular target: T3, mouse 11β-HSD1 (Mus musculus, UniProt P50172); experiment: Enzyme inhibitory activity assay, lysate of CHO-K1 cells stably expressing mouse 11β-HSD1, cortisol by competitive ELISA; details: Table 2; cell lysate, 100 nmol/L cortisone, NADPH, 37° C. 1 hour; read-out: in vitro assay (IC50 uM) m HSD1
T3 construct: expressed in transfected cells
T3 sequence (P50172 whole entry): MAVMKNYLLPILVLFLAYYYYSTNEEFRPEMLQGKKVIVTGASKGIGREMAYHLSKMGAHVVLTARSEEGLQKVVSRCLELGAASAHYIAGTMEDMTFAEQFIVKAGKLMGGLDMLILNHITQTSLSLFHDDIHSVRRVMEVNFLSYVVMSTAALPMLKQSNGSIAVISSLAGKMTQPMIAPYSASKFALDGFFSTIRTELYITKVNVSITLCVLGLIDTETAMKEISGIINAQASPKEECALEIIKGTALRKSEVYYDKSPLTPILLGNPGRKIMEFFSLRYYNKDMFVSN
Description: as §1, §2, §3, §4, §5

| IC50 (human 11β-HSD1) [µM] | IC50 (human 11β-HSD2) [µM] | IC50 (mouse 11β-HSD1) [µM] | SMILES |
| --- | --- | --- | --- |
| 0.11 | 4.1 | 0.0078 | CC1(C)C(=O)N(C2C3CC4CC(C3)CC2C4)C1C1(c2ccc(Cl)cc2)CC1 (stereo not drawn) [Example 70, 4-[1-(4-chlorophenyl)cyclopropyl]-1-(adamantan-2-yl)-3,3-dimethylazetidin-2-one] |
| 0.059 | 4.3 | 0.0061 | CC1(C)C(=O)N(C2C3CC4CC(C3)CC2C4)C1C1(c2ccccc2)CC1 (stereo not drawn) [Example 71, 1-(adamantan-2-yl)-3,3-dimethyl-4-(1-phenylcyclopropyl)azetidin-2-one] |
